# Square brackets hold non-standard residues; d marks the D form. Ends that are not written are not given here. Peptide text beside a SMILES is read from it. Tle = CC(C)(C)[C@H](N)C(=O)O
# Columns and labels:
# db mice [1] = test: Time course of blood glucose lowering in db mice; conditions: 8 μg injected; for duration of action (in words): db / diabetic mice
# Description: At each time point the percent change in blood glucose was determined for 10 mice and the average change±SEM is plotted.
# At each time point, the percentage change in blood glucose was determined for 10 mice and the average change±SEM is plotted.
# In an exemplary embodiment, for treatment of the mice with a regimen including a peptide hormone analog or control, sub-orbital sinus blood samples are taken before and at some time (e.g., 60 minutes) after dosing of each animal. Blood glucose measurements can be made by any of several conventional techniques, such as using a glucose meter. The blood glucose levels of the control and peptide hormone analog dosed animals are compared
# human GLP-1 receptor = human GLP-1 receptor (Homo sapiens, UniProt P43220); conditions: peptide concentration 300 nM
# Description: Peptides were tested for agonist activity at a concentration of 300 nM. The data represent the mean±SEM with n=4.
# Data values∓SEM are plotted and fit to a sigmoidal dose-response curve.
# db mice [2] = test: Dose response of blood glucose lowering in diabetic (db) mice; type: in vivo; conditions: blood glucose 60 minutes post injection
# Source text: The data were fit to a sigmoidal dose response curve.
# rat DPP IV = rat DPP IV (Rattus norvegicus, UniProt P14740); test: Digestion of model hexapeptides by rat DPP IV (LCMS); conditions: for half-life: pH 8
# Source text: The data were fit to a single phase exponential equation.
# DPP-IV cleaves the N-terminal dipeptide from peptides with either Pro or Ala in the penultimate position (P2).
# Sequence of rat DPP IV (P14740 whole entry): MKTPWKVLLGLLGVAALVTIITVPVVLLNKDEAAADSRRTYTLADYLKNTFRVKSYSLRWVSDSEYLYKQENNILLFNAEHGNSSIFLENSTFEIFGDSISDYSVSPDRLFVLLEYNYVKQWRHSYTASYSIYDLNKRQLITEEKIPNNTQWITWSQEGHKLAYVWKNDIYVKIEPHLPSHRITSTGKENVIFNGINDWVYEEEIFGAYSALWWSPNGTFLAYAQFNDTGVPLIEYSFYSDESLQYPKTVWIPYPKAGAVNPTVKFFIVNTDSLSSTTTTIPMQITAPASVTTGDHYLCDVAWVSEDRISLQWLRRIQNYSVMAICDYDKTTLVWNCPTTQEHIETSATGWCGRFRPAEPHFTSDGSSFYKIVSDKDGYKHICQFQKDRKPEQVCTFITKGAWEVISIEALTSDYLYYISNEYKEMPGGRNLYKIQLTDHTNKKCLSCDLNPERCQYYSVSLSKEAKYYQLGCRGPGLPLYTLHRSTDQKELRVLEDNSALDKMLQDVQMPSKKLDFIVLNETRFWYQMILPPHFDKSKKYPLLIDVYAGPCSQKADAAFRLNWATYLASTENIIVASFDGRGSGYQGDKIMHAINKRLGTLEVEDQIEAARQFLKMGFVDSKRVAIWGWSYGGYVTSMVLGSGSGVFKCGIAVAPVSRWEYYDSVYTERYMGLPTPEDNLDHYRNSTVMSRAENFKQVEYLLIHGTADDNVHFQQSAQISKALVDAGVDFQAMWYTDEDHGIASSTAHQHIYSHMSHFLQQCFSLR
# Sequence of human GLP-1 receptor (P43220 24-463): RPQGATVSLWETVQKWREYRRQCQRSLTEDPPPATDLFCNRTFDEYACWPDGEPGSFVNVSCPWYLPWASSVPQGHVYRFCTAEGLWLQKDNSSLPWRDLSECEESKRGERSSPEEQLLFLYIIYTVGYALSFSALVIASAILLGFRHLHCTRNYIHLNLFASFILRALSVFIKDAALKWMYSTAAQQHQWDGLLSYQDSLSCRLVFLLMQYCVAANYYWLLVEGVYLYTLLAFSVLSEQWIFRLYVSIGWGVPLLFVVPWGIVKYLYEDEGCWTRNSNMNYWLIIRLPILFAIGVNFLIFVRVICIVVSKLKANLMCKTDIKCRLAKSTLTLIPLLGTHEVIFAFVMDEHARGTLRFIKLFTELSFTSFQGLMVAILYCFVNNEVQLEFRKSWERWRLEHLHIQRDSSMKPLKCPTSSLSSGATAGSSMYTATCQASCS
molecule,measurement,setting,value
"CC[C@H](C)[C@H](NC(=O)[C@H](Cc1ccccc1)NC(=O)[C@H](CCC(=O)O)NC(=O)[C@H](CCCCN)NC(=O)[C@H](C)NC(=O)[C@H](C)NC(=O)[C@H](CCC(N)=O)NC(=O)CNC(=O)[C@H](CCC(=O)O)NC(=O)[C@H](CC(C)C)NC(=O)[C@H](Cc1ccc(O)cc1)NC(=O)[C@H](CO)NC(=O)[C@H](CO)NC(=O)[C@@H](NC(=O)[C@H](CC(=O)O)NC(=O)[C@H](CO)NC(=O)[C@@H](NC(=O)[C@H](Cc1ccccc1)NC(=O)[C@@H](NC(=O)CNC(=O)[C@@H](NC(=O)[C@H](C)NC(=O)[C@@H](N)Cc1c[nH]cn1)C(C)(C)C(=O)O)[C@@H](C)O)[C@@H](C)O)C(C)C)C(=O)N[C@@H](C)C(=O)N[C@@H](Cc1c[nH]c2ccccc12)C(=O)N[C@@H](CC(C)C)C(=O)N[C@H](C(=O)N[C@@H](CCCCN)C(=O)NCC(=O)N[C@@H](CCCNC(=N)N)C(N)=O)C(C)C [TPA1B4, HAXGTFTSDVSSYLEGQAAKEFIAWLVKGR-NH2]",blood glucose level reached (in words),db mice [1]; db mice,within the range observed for normal mice
same,duration of blood glucose lowering effect,db mice [1]; db mice,at least 90 minutes
same,time of return of blood glucose to hyperglycemic values,db mice [1]; db mice,≤ 4 h
same,amount of GLP-1 receptor activation as measured by cAMP production,human GLP-1 receptor,the same
same,95% confidence interval of EC50 of glucose lowering effect,db mice [2],0.1 to 1.92 µg
same,EC50 of glucose lowering effect,db mice [2],0.4 µg
C[C@H](N)C(=O)N1CCC[C@H]1C(=O)N[C@H](C(=O)N[C@@H](CO)C(=O)N[C@@H](Cc1c[nH]c2ccccc12)C(=O)N[C@@H](CO)C(N)=O)C(C)(C)C [Ala-Pro-Tle-Ser-Trp-Ser-NH2] (H-AP[Tle]SWS-NH2),cleavage by rat DPP IV (in words),rat DPP IV,No reaction was observed
"HAXGTFTSDVSSYLEGQAAKEFIAWLVKGRZ-NH2 (HAXGTFTSDVSSYLEGQAAKEFIAWLVKGRX; β-dimethyl Asp, biphenylalanine, C-terminal amide) [DGS69]",duration of action (in words),db mice [1],significantly increased the duration
"CC[C@H](C)[C@H](NC(=O)[C@H](Cc1ccccc1)NC(=O)[C@H](CCC(=O)O)NC(=O)[C@H](CCCCN)NC(=O)[C@H](C)NC(=O)[C@H](C)NC(=O)[C@H](CCC(N)=O)NC(=O)CNC(=O)[C@H](CCC(=O)O)NC(=O)[C@H](CC(C)C)NC(=O)[C@H](Cc1ccc(O)cc1)NC(=O)[C@H](CO)NC(=O)[C@H](CO)NC(=O)[C@@H](NC(=O)[C@H](CC(=O)O)NC(=O)[C@H](CO)NC(=O)[C@@H](NC(=O)[C@H](Cc1ccccc1)NC(=O)[C@@H](NC(=O)CNC(=O)[C@H](CCC(=O)O)NC(=O)[C@H](C)NC(=O)[C@@H](N)Cc1c[nH]cn1)[C@@H](C)O)[C@@H](C)O)C(C)C)C(=O)N[C@@H](C)C(=O)N[C@@H](Cc1c[nH]c2ccccc12)C(=O)N[C@@H](CC(C)C)C(=O)N[C@H](C(=O)N[C@@H](CCCCN)C(=O)NCC(=O)N[C@@H](CCCNC(=N)N)C(N)=O)C(C)C [GLP-1, reference compound]",duration of action (in words),db mice [1],largely gone by 60 minutes
APLSWS-NH2 [Ala-Pro-Leu-Ser-Trp-Ser-NH2],half-life,rat DPP IV,49 min
APISWS-NH2 [Ala-Pro-Ile-Ser-Trp-Ser-NH2],half-life,rat DPP IV,41 min
